# Measured values published in patent US20130029928A1 (priority 2010, published 2013).
# Like-named read-outs stand apart in the source and are kept apart here.
# Assay: Phase I study CXR1002-001: plasma pharmacokinetics (LC-MS/MS)
# Format: in vivo, human
# Conditions: for concentration at 696 h: 696 hr (Day 29)
# Description: PK samples, PD (fasting) samples, blood glucose, and blood triglyceride samples, were taken over a 6-week period.
# Dose limiting toxicity (DLT) will be based on the toxicity assessments over the first 3-week period of the repeat dosing schedule. PK samples (single blood sample) were taken on the following basis: • Every 6 weeks during the repeat dosing phase • If dosing is interrupted or stopped, samples will be taken at intervals according to patient convenience • PK sampling for safety evaluation may take place at any time, as clinically indicated
# Plasma samples were collected after the single 50 mg dose at the following timepoints: Pre-dose, and then 0.25, 0.5, 0.75, 1, 1.5, 2, 3, 4, 6, 24, 48, and 72 hours after administration and then once weekly at weeks 2, 3, 4, 5, and 6 (days 8, 15, 22, 29, and 36). For patients treated with the weekly repeat dose, plasma samples were collected at the following timepoints: Pre-dose and then 2, 3, 4 and 24 hours after administration for a total of 6 weeks. Thereafter a single sample was collected every 6 weeks for monitoring of exposure during long term treatment. Plasma samples were processed at site and stored at −80° C. prior to batch shipment to the analytical laboratory.
# [1] = human, plasma, oral, 50 mg, Patient 001 Dose 50 mg
# [2] = human, plasma, oral, 50 mg, Patient 001 Dose 50 mg, read-out: Concentration
# [3] = human, plasma, oral, 50 mg, Patient 002 Dose 50 mg
# [4] = human, plasma, oral, 50 mg, Patient 002 Dose 50 mg, read-out: Concentration
# [5] = human, plasma, oral, 50 mg, Patient 003 Dose 50 mg
smiles,measurement,setting,value
O=C(O)C(F)(F)C(F)(F)C(F)(F)C(F)(F)C(F)(F)C(F)(F)C(F)(F)F [CXR1002],maximal plasma level recorded,"1200 mg weekly dose over a 5 week period, one patient",1530 µM
same,Concentration,"Patient 032, 950 mg, person, plasma, 0 hr (pre-dose)",BLQ
same,oral bioavailability,clinical trials,orally bioavailable
same,concentration at 168 h,"female, human, plasma, oral, Female, plasma, 168 hr (Day 8), read-out: Concentration",146 µM
same,concentration at 170 h,"female, human, plasma, oral, Female, plasma, 170 hr, read-out: Concentration",276 µM
same,concentration at 171 h,"female, human, plasma, oral, Female, plasma, 171 hr, read-out: Concentration",253 µM
same,concentration at 172 h,"female, human, plasma, oral, Female, plasma, 172 hr, read-out: Concentration",248 µM
same,concentration at 192 h,"female, human, plasma, oral, Female, plasma, 192 hr (Day 9), read-out: Concentration",246 µM
same,concentration at 504 h,"female, human, plasma, oral, Female, plasma, 504 hr (Day 22), read-out: Concentration",333 µM
same,concentration at 506 h,"female, human, plasma, oral, Female, plasma, 506 hr, read-out: Concentration",427 µM
same,concentration at 507 h,"female, human, plasma, oral, Female, plasma, 507 hr, read-out: Concentration",412 µM
same,concentration at 528 h,"female, human, plasma, oral, Female, plasma, 528 hr (Day 23), read-out: Concentration",405 µM
same,concentration at 840 h,"female, human, plasma, oral, Female, plasma, 840 hr (Day 36), read-out: Concentration",434 µM
same,concentration at 842 h,"female, human, plasma, oral, Female, plasma, 842 hr, read-out: Concentration",461 µM
same,concentration at 843 h,"female, human, plasma, oral, Female, plasma, 843 hr, read-out: Concentration",457 µM
same,concentration at 844 h,"female, human, plasma, oral, Female, plasma, 844 hr, read-out: Concentration",482 µM
same,concentration at 864 h,"female, human, plasma, oral, Female, plasma, 864 hr (Day 37), read-out: Concentration",526 µM
same,concentration at 0 h,[1],0 µM
same,concentration at 0.25 h,[1],0.35 µM
same,concentration at 0.5 hr,"human, plasma, oral, 50 mg, Patient 001 Dose 50 mg, 0.5 hr",1.11 µM
same,concentration at 0.75 hr,"human, plasma, oral, 50 mg, Patient 001 Dose 50 mg, 0.75 hr",9.17 µM
same,concentration at 1 hr,"human, plasma, oral, 50 mg, Patient 001 Dose 50 mg, 1 hr",14.4 µM
same,concentration at 1.5 h,[1],25.7 µM
same,concentration at 2 h,"human, plasma, oral, 50 mg, Patient 001 Dose 50 mg, 2 hr, read-out: Concentration",22.5 µM
same,concentration at 3 h,[2],20.8 µM
same,concentration at 6 h,[1],14.7 µM
same,concentration at 24 h,[2],13.8 µM
same,concentration at 48 h,[1],12.8 µM
same,concentration at 72 hr,"human, plasma, oral, 50 mg, Patient 001 Dose 50 mg, 72 hr",9.7 µM
same,concentration at 192 hr,"human, plasma, oral, 50 mg, Patient 001 Dose 50 mg, 192 hr (Day 8), read-out: Concentration",8.54 µM
same,concentration at 360 hr,"human, plasma, oral, 50 mg, Patient 001 Dose 50 mg, 360 hr (Day 15), read-out: Concentration",8.63 µM
same,concentration at 528 h,"human, plasma, oral, 50 mg, Patient 001 Dose 50 mg, 528 hr (Day 22), read-out: Concentration",11.6 µM
same,concentration at 696 h,[2],10.2 µM
same,concentration at 864 h,"human, plasma, oral, 50 mg, Patient 001 Dose 50 mg, 864 hr (Day 36), read-out: Concentration",8.89 µM
same,concentration at 144 day,"human, plasma, oral, 50 mg, Patient 001 Dose 50 mg, Day 144",226 µM
same,concentration at 179 day,"human, plasma, oral, 50 mg, Patient 001 Dose 50 mg, Day 179",250 µM
same,concentration at 227 day,"human, plasma, oral, 50 mg, Patient 001 Dose 50 mg, Day 227",308 µM
same,concentration at 268 day,"human, plasma, oral, 50 mg, Patient 001 Dose 50 mg, Day 268",268 µM
same,concentration at 0 h,[3],0 µM
same,concentration at 0.25 h,[3],3.06 µM
same,concentration at 0.5 h,"human, plasma, oral, 50 mg, Patient 002 Dose 50 mg, 0.5 hr",7.62 µM
same,concentration at 0.75 h,"human, plasma, oral, 50 mg, Patient 002 Dose 50 mg, 0.75 hr",8.39 µM
same,concentration at 1 h,"human, plasma, oral, 50 mg, Patient 002 Dose 50 mg, 1 hr",8.55 µM
same,concentration at 1.5 h,[3],29.8 µM
same,concentration at 3 h,[4],22.8 µM
same,concentration at 4 h,"human, plasma, oral, 50 mg, Patient 002 Dose 50 mg, 4 hr, read-out: Concentration",14.5 µM
same,concentration at 6 h,[3],17.5 µM
same,concentration at 24 h,[4],14.3 µM
same,concentration at 48 h,[3],13.3 µM
same,concentration at 72 h,"human, plasma, oral, 50 mg, Patient 002 Dose 50 mg, 72 hr",15.6 µM
same,concentration at 192 h,"human, plasma, oral, 50 mg, Patient 002 Dose 50 mg, 192 hr (Day 8), read-out: Concentration",17.2 µM
same,concentration at 360 h,"human, plasma, oral, 50 mg, Patient 002 Dose 50 mg, 360 hr (Day 15), read-out: Concentration",18.6 µM
same,concentration at 528 h,"human, plasma, oral, 50 mg, Patient 002 Dose 50 mg, 528 hr (Day 22), read-out: Concentration",21.5 µM
same,concentration at 696 h,[4],21 µM
same,concentration at 864 h,"human, plasma, oral, 50 mg, Patient 002 Dose 50 mg, 864 hr (Day 36), read-out: Concentration",20.1 µM
same,concentration at 0 h,[5],0.14 µM
same,concentration at 0.25 h,[5],1.08 µM
